Reference: the supplement of paper PMC10307832

Assays:
Metformin + AZD7762 = compound: CN(C)C(=N)NC(=N)N [Metformin] + NC(=O)Nc1cc(-c2cccc(F)c2)sc1C(=O)N[C@H]1CCCNC1 [AZD7762] (partner 0.2 µM); test: relative viability (nuclei count vs DMSO), 5 days (fraction); higher = more cells survive
Procedure, shortened: (§1)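 Lung cancer cell lines, seeded in 1536-well plates, were treated the following day by pin tool with a single drug or with five library-drug doses (not always all listed) in √10 steps on top of a fixed anchor-drug dose. Cells were fixed and nuclei stained in one step after 5 days, and nuclei were counted. Relative viability is the nuclei count for treated wells divided by that for vehicle wells, reported as medians of duplicate plates.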

Metformin + Trametinib = compound: CN(C)C(=N)NC(=N)N [Metformin] + CC(=O)Nc1cccc(-n2c(=O)n(C3CC3)c(=O)c3c(Nc4ccc(I)cc4F)n(C)c(=O)c(C)c32)c1 [Trametinib] (partner 0.02 µM); test: as above
Procedure, shortened: as §1

| Cell Line | relative viability (Metformin + AZD7762; first compound 10 µM) | relative viability (Metformin + AZD7762; first compound 31.62 µM) | relative viability (Metformin + AZD7762; first compound 100 µM) | relative viability (Metformin + AZD7762; first compound 316.23 µM) | relative viability (Metformin + AZD7762; first compound 1000 µM) | relative viability (Metformin + Trametinib; first compound 10 µM) | relative viability (Metformin + Trametinib; first compound 31.62 µM) | relative viability (Metformin + Trametinib; first compound 100 µM) | relative viability (Metformin + Trametinib; first compound 316.23 µM) | relative viability (Metformin + Trametinib; first compound 1000 µM) |
| --- | --- | --- | --- | --- | --- | --- | --- | --- | --- | --- |
| NCI-H1666 | 0.897 | 0.993 | 0.98 | 0.869 | 1.1 | 0.687 | 0.676 | 0.759 | 0.771 | 0.941 |
| UMC-11 |  |  |  |  |  | 0.552 | 0.687 | 0.727 | 0.77 | 0.572 |
| NCI-H1755 | 0.361 | 0.379 | 0.408 | 0.345 | 0.408 | 0.683 | 0.626 | 0.656 | 0.682 | 0.676 |
| 201T |  | 0.5 | 0.581 | 0.476 | 0.609 |  | 0.679 | 0.735 | 0.684 | 0.681 |
| NCI-H522 | 1.02 | 0.986 | 0.97 | 0.985 | 1.07 | 1.07 | 0.749 | 0.725 | 0.899 | 1.21 |
| NCI-H838 | 0.972 | 0.947 | 0.989 | 0.99 | 0.94 | 0.557 | 0.572 | 0.541 | 0.525 | 0.579 |
| HOP-62 | 0.248 | 0.41 | 0.416 | 0.325 | 0.492 | 0.409 | 0.497 | 0.427 | 0.364 | 0.485 |
| LC-2-ad |  | 0.885 | 0.906 | 0.811 | 0.87 |  | 0.81 | 0.827 | 0.81 | 0.857 |
| NCI-H2170 | 0.74 | 0.836 | 0.869 | 0.745 | 0.913 | 0.789 | 0.779 | 0.903 | 0.869 | 0.945 |
| LCLC-97TM1 | 0.205 | 0.244 | 0.205 | 0.27 | 0.306 |  | 0.207 | 0.247 | 0.174 | 0.229 |
| NCI-H1993 | 0.714 | 0.656 | 0.744 | 0.716 | 0.9 | 0.477 | 0.634 | 0.497 | 0.425 | 0.611 |
| NCI-H520 |  |  |  |  |  | 0.798 | 0.622 | 0.739 | 0.505 | 0.762 |
| NCI-H1650 |  |  |  |  |  | 0.597 | 0.602 | 0.718 | 0.474 | 0.458 |
| SK-MES-1 |  |  |  |  |  | 0.564 | 0.574 | 0.595 | 0.57 | 0.616 |
| NCI-H2085 | 0.873 | 0.99 | 0.979 | 0.893 | 0.989 | 0.541 | 0.58 | 0.446 | 0.542 | 0.631 |
| NCI-H441 |  | 0.7 | 1.05 | 0.982 | 1.06 |  | 0.575 | 0.573 | 0.442 | 0.639 |
| PC-3 [JPC-3] | 0.916 | 1.12 |  | 0.798 | 0.651 | 0.683 | 0.717 |  | 0.706 | 0.68 |
| NCI-H1944 | 0.406 | 0.586 | 0.48 | 0.626 | 0.527 | 0.37 | 0.412 | 0.38 | 0.365 | 0.415 |
| CAL-12T | 0.659 | 0.718 | 0.638 | 0.646 | 0.659 | 0.357 | 0.443 | 0.404 | 0.432 | 0.452 |
